Test results taken from PubChem BioAssay (NCI).
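Briefly, cells in 96-well plates were exposed to five compound concentrations for 48 h, and endpoints were estimated by linear interpolation. GI50 marks 50% less growth. The concentration for full growth arrest is given as TGI.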

What was measured:
Experiment in all cases: NCI tumour cell line growth inhibition, 48 h
UACC-257 melanoma = tested on: UACC-257 melanoma
UACC-62 melanoma = tested on: UACC-62 melanoma
HCC-2998 colon = tested on: HCC-2998 colon
MALME-3M melanoma = tested on: MALME-3M melanoma
HCT-116 colon = tested on: HCT-116 colon
OVCAR-5 ovarian = tested on: OVCAR-5 ovarian
OVCAR-8 ovarian = tested on: OVCAR-8 ovarian
NCI-H522 lung = tested on: NCI-H522 lung
SR leukemia = tested on: SR leukemia
LOX IMVI melanoma = tested on: LOX IMVI melanoma

Row | SMILES | TGI (UACC-257 melanoma) [µM] | TGI (UACC-62 melanoma) [µM] | TGI (HCC-2998 colon) [µM] | TGI (MALME-3M melanoma) [µM] | TGI (HCT-116 colon) [µM] | TGI (OVCAR-5 ovarian) [µM] | TGI (OVCAR-8 ovarian) [µM] | TGI (NCI-H522 lung) [µM] | TGI (SR leukemia) [µM] | TGI (LOX IMVI melanoma) [µM] | GI50 (HCT-116 colon) [µM] | GI50 (SR leukemia) [µM] | GI50 (OVCAR-5 ovarian) [µM]
1 | CN(C)/N=N/c1nc2c(c(=O)n(C)c(=O)n2C)n1CC(O)CO (centres undefined) | > 100 | > 100 | > 100 | > 100 | > 100 | > 100 | > 100 | > 100 |  |  |  |  | 
2 | COc1cccc(N=N/C(=N\NC(=O)c2ccc(C)cc2)c2ccc(N(CCC#N)CCC#N)cc2C)c1 | > 100 |  | > 100 | > 100 | > 100 | > 100 | > 100 |  | > 100 | > 100 |  |  | 
3 | COc1cc2cc(C(=O)N3CC(COS(C)(=O)=O)c4ccc(O)cc43)[nH]c2c(OC)c1OC (centres undefined) | 0.00404 |  | < 0.0001 |  | 0.138 | 0.0428 | 0.149 | < 0.0001 |  |  |  |  | 
4 | O=C1CC(=O)n2cnc3cccc(c32)N1 | > 100 | > 100 |  | > 100 | > 100 | > 100 | > 100 |  | > 100 |  |  |  | 
5 | NCC(O)CSCc1ccc(Cl)cc1 (centres undefined) | > 100 | > 100 | > 100 | > 100 | > 100 | > 100 | > 100 | > 100 |  | > 100 |  |  | 
6 | NCc1cccc(O)c1O | > 100 | > 100 |  | > 100 | > 100 | > 100 | > 100 | > 100 | > 100 | > 100 |  |  | 
7 | O=[N+]([O-])c1cccc(N=Nc2c(O)c(S(=O)(=O)O)cc3cc(S(=O)(=O)O)ccc23)c1 | > 100 | > 100 | > 100 | > 100 | > 100 | > 100 | > 100 | > 100 | > 100 |  |  |  | 
8 | C#CCn1c(=O)c(C)cn(/C(=C\C(=O)OCC)C(=O)OCC)c1=O | 28.2 | 23 |  | 5.6 | 10.3 | 23.9 | 13.2 |  | > 27.6 | > 50.2 |  |  | 
9 | CC(Oc1ccccc1Cl)C(=O)NN1C(=O)CSC1c1ccccc1 (centres undefined) | > 100 | > 100 | > 100 |  | > 100 | > 100 | > 100 | > 100 | > 100 | > 100 |  |  | 
10 | Cc1ccc(S(=O)(=O)Nn2c(O)c(C#N)c(-c3ccc(Cl)cc3)c(C#N)c2=O)cc1 | > 100 | > 100 | > 100 | > 100 | > 100 | > 100 | > 100 | > 100 |  | > 100 |  |  | 
11 | Cc1ccccc1N=C(N)Nc1ccccc1C | > 100 | > 100 | 62.1 | > 100 | > 100 | > 100 | > 100 | > 100 |  | > 100 |  |  | 
12 | O=C(N/N=C/C=C/c1ccccc1)c1ccccc1Nc1ccccc1C(=O)N/N=C/C=C/c1ccccc1 | > 100 | > 100 | > 100 | > 100 | > 100 | > 100 | > 100 |  | > 100 |  |  |  | 
13 | CN(Cc1cnc2nc(N)nc(N)c2n1)c1ccc(C(=O)NC(CO)CCCO)cc1 (centres undefined) | > 100 | > 100 |  | > 100 | > 100 | > 100 | > 100 |  | > 100 | > 100 |  |  | 
14 | CN=C(/N=c1\ssc(=NC)n1C)N(C)C | > 100 | > 100 | > 100 |  |  | > 100 | > 100 | > 100 | > 100 | > 100 |  |  | 
15 | Cc1c(C(=O)OCc2ccccc2)[n+](=O)c2cc(Cl)c(Cl)cc2n1[O-] | 29.6 | 31 | 28.5 |  | 27.2 | 39.2 | 46.5 |  | 21.4 | 35.7 |  |  | 
16 | COC[C@@H](N=Cc1ccc([N+](=O)[O-])cc1)C(C)C | > 100 | > 100 |  | > 100 | > 100 | > 100 | > 100 | > 100 | > 100 | > 100 |  |  | 
17 | COc1cc(C2c3cc4c(cc3C3OC[C@@H]2C3CO)OCO4)cc(OC)c1OC (some centres undefined) | 76.5 |  |  | > 100 | > 100 | > 100 | > 100 | 47.8 | > 100 | > 100 | 30.3 |  | 
18 | CC1(C)CC(=O)C2(CC(CSc3ccccc3)C(CS(=O)(=O)c3ccccc3)C2)C(=O)C1 (centres undefined) | > 100 | > 100 | > 100 |  | > 100 | > 100 | > 100 | > 100 |  | > 100 |  |  | 
19 | CCCCCCCCCCCCCCCCCCNc1nc(=O)n(C2CC(O)C(COP(=O)(O)O)O2)cc1F (centres undefined) | > 100 | > 100 | > 100 | > 100 | > 100 | > 100 | > 100 | > 100 |  | > 100 |  |  | 
20 | Cc1cc2c([nH]c3ccccc32)c(O)c1-c1c(C)cc2c([nH]c3ccccc32)c1O | 30.9 |  | 22.4 |  | 27.2 | 29 | 30.4 | 31.5 | 16 | 32.7 |  | 3.16 | 15
21 | O=c1c(-c2ccccc2)c(SCCO)n(-c2ccccc2)c(=S)n1-c1ccccc1 | > 100 | > 100 |  | > 100 | > 100 | > 100 | > 100 | > 100 | > 100 | > 100 |  |  | 
22 | COc1ccc(OC)c(SC(CC(=O)c2ccccc2)c2ccccc2)c1 (centres undefined) | 30.7 | 30.7 | 31.6 | 38.5 | 11 | 33.5 | 28.7 | 29.2 | > 100 |  |  |  | 
23 | COc1ccc(C(=O)CC(c2ccccc2)[C@H]2C(c3ccc(OC)cc3)=Nc3c(nc(SC)n(C)c3=O)NC2c2ccccc2)cc1 (some centres undefined) | > 100 | > 100 | > 100 |  | > 100 | > 100 |  | > 100 | > 100 | > 100 |  |  | 
